Values after ≈ are worked out from the molar mass of the structure shown.
Assays:
Candida albicans [1] = assay: Antifungal activity against Candida albicans CPCC 400616 assessed as inhibition of fungal growth by microdilution method; assay type: functional
Candida tropicalis = assay: Antifungal activity against Candida tropicalis CGMCC 2.3739 assessed as inhibition of fungal growth by microdilution method; assay type: functional
Candida albicans [2] = assay: Antifungal activity against Candida albicans ATCC SC5314 assessed as inhibition of fungal growth by microdilution method; assay type: functional
Pichia kudriavzevii = assay: Antifungal activity against Candida krusei AS 2.1045 assessed as inhibition of fungal growth by microdilution method; assay type: functional
Cryptococcus neoformans = assay: Antifungal activity against Cryptococcus neoformans CGMCC 2.3161 assessed as inhibition of fungal growth by microdilution method; assay type: functional
Aspergillus fumigatus = assay: Antifungal activity against Aspergillus fumigatus CGMCC 3.7795 assessed as inhibition of fungal growth by microdilution method; assay type: functional
Nakaseomyces glabratus = assay: Antifungal activity against clinical isolate Candida glabrata assessed as inhibition of fungal growth by microdilution method; assay type: functional
Candida parapsilosis = assay: Antifungal activity against Candida parapsilosis 22019 assessed as inhibition of fungal growth by microdilution method; assay type: functional; details: Lodderomyces parapsilosis
MDA-MB-231 = assay: Cytotoxicity against human MDA-MB-231 cells assessed as inhibition of cell growth by MTT assay; assay type: functional, cell-based
[3] = biological target: T1, Lanosterol 14-alpha demethylase (Candida albicans (strain SC5314 / ATCC MYA-2876) (Yeast), UniProt P10613); assay: Inhibition of CYP51 in Candida albicans SC5314 assessed as eburicol level at 8 ug/ml by GC-MS analysis (reference value: 0 %); design: scale not given: the % may be the effect or the level left; details: at 8 µg/mL
T1 sequence (P10613 whole entry): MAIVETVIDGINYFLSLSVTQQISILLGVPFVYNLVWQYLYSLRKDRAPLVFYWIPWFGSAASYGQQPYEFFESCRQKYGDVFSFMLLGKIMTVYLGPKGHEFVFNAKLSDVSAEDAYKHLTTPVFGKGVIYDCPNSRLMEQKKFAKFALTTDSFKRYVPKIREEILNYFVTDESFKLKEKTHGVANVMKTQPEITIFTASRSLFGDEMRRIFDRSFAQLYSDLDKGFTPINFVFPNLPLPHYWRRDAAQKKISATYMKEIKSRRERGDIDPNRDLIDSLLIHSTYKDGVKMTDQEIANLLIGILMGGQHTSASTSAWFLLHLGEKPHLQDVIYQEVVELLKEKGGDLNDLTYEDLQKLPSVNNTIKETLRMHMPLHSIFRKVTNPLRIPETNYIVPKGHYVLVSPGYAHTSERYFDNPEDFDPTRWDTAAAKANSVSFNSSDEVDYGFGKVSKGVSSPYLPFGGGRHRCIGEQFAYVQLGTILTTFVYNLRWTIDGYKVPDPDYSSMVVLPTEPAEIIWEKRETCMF

PC-3 = assay: Cytotoxicity against human PC-3 cells assessed as inhibition of cell growth by MTT assay; assay type: functional, cell-based
[4] = biological target: T1, Lanosterol 14-alpha demethylase; assay: Inhibition of CYP51 in Candida albicans SC5314 assessed as lanosterol level at 4 ug/ml by GC-MS analysis (reference value: 1.7 %); design: scale not given: the % may be the effect or the level left; details: at 4 µg/mL
[5] = biological target: T1, Lanosterol 14-alpha demethylase; assay: Inhibition of CYP51 in Candida albicans SC5314 assessed as eburicol level at 2 ug/ml by GC-MS analysis (reference value: 0 %); design: scale not given: the % may be the effect or the level left; details: at 2 µg/mL
[6] = biological target: T1, Lanosterol 14-alpha demethylase; assay: Inhibition of CYP51 in Candida albicans SC5314 assessed as lanosterol level at 1 ug/ml by GC-MS analysis (reference value: 1.7 %); design: scale not given: the % may be the effect or the level left; details: at 1 µg/mL
[7] = biological target: T1, Lanosterol 14-alpha demethylase; assay: Inhibition of CYP51 in Candida albicans SC5314 assessed as obtusifoliol level at 8 ug/ml by GC-MS analysis (reference value: 0 %); design: scale not given: the % may be the effect or the level left; details: at 8 µg/mL
[8] = biological target: T1, Lanosterol 14-alpha demethylase; assay: Inhibition of CYP51 in Candida albicans SC5314 assessed as eburicol level at 1 ug/ml by GC-MS analysis (reference value: 0 %); design: scale not given: the % may be the effect or the level left; details: at 1 µg/mL
[9] = biological target: T1, Lanosterol 14-alpha demethylase; assay: Inhibition of CYP51 in Candida albicans SC5314 assessed as obtusifoliol level at 1 ug/ml by GC-MS analysis (reference value: 0 %); design: scale not given: the % may be the effect or the level left; details: at 1 µg/mL
[10] = biological target: T1, Lanosterol 14-alpha demethylase; assay: Inhibition of CYP51 in Candida albicans SC5314 assessed as ergosterol level at 4 ug/ml by GC-MS analysis (reference value: 98.3 %); design: scale not given: the % may be the effect or the level left; details: at 4 µg/mL
[11] = biological target: T1, Lanosterol 14-alpha demethylase; assay: Inhibition of CYP51 in Candida albicans SC5314 assessed as obtusifoliol level at 2 ug/ml by GC-MS analysis (reference value: 0 %); design: scale not given: the % may be the effect or the level left; details: at 2 µg/mL
[12] = biological target: T1, Lanosterol 14-alpha demethylase; assay: Inhibition of CYP51 in Candida albicans SC5314 assessed as ergosterol level at 8 ug/ml by GC-MS analysis (reference value: 98.3 %); design: scale not given: the % may be the effect or the level left; details: at 8 µg/mL
HL-60 = assay: Cytotoxicity against human HL-60 cells assessed as inhibition of cell growth by MTT assay; assay type: functional, cell-based
[13] = biological target: T1, Lanosterol 14-alpha demethylase; assay: Inhibition of CYP51 in Candida albicans SC5314 assessed as eburicol level at 4 ug/ml by GC-MS analysis (reference value: 0 %); design: scale not given: the % may be the effect or the level left; details: at 4 µg/mL
[14] = biological target: T1, Lanosterol 14-alpha demethylase; assay: Inhibition of CYP51 in Candida albicans SC5314 assessed as ergosterol level at 1 ug/ml by GC-MS analysis (reference value: 98.3 %); design: scale not given: the % may be the effect or the level left; details: at 1 µg/mL
[15] = biological target: T1, Lanosterol 14-alpha demethylase; assay: Inhibition of CYP51 in Candida albicans SC5314 assessed as obtusifoliol level at 4 ug/ml by GC-MS analysis (reference value: 0 %); design: scale not given: the % may be the effect or the level left; details: at 4 µg/mL
[16] = biological target: T1, Lanosterol 14-alpha demethylase; assay: Inhibition of CYP51 in Candida albicans SC5314 assessed as lanosterol level at 8 ug/ml by GC-MS analysis (reference value: 1.7 %); design: scale not given: the % may be the effect or the level left; details: at 8 µg/mL
[17] = biological target: T1, Lanosterol 14-alpha demethylase; assay: Inhibition of CYP51 in Candida albicans SC5314 assessed as lanosterol level at 2 ug/ml by GC-MS analysis (reference value: 1.7 %); design: scale not given: the % may be the effect or the level left; details: at 2 µg/mL
[18] = biological target: T1, Lanosterol 14-alpha demethylase; assay: Inhibition of CYP51 in Candida albicans SC5314 assessed as ergosterol level at 2 ug/ml by GC-MS analysis (reference value: 98.3 %); design: scale not given: the % may be the effect or the level left; details: at 2 µg/mL
Candida albicans [19] = assay: Antifungal activity against Candida albicans CPCC 400616 assessed as inhibition of fungal growth; assay type: functional
Candida albicans [20] = assay: Antifungal activity against Candida albicans ATCC SC5314 assessed as inhibition of fungal growth; assay type: functional

Row | Compound | MIC (Candida albicans [1]) | MIC (Candida tropicalis) | MIC (Candida albicans [2]) | MIC (Pichia kudriavzevii) | MIC (Cryptococcus neoformans) | MIC (Aspergillus fumigatus) | MIC (Nakaseomyces glabratus) | MIC (Candida parapsilosis) | further results
1 | OC(C[Se]Cc1ccccc1Cl)(Cn1cncn1)c1ccc(F)cc1F (stereo not given) | 0.125 µg/mL | 0.25 µg/mL | 0.02 µg/mL | 0.125 µg/mL | 0.25 µg/mL | 2 µg/mL | 0.5 µg/mL | 0.125 µg/mL | –
2 | Cc1cccc(C)c1[Se]CC(O)(Cn1cncn1)c1ccc(F)cc1F (stereo not given) | 0.06 µg/mL | 1 µg/mL | 0.5 µg/mL | 0.125 µg/mL | 0.25 µg/mL | 4 µg/mL | 1 µg/mL | 0.25 µg/mL | –
3 | OC(C[Se]c1ccc(F)cc1)(Cn1cncn1)c1ccc(F)cc1F (stereo not given) | 0.25 µg/mL | 0.5 µg/mL | 0.125 µg/mL | 2 µg/mL | 0.25 µg/mL | 4 µg/mL | 4 µg/mL | 0.125 µg/mL | –
4 | Cc1cc(C)cc([Se]CC(O)(Cn2cncn2)c2ccc(F)cc2F)c1 (stereo not given) | 0.06 µg/mL | 0.06 µg/mL | 0.03 µg/mL | 2 µg/mL | 0.03 µg/mL | 8 µg/mL | 4 µg/mL | 0.25 µg/mL | –
5 | Cc1cccc([Se]CC(O)(Cn2cncn2)c2ccc(F)cc2F)c1 (stereo not given) | 0.25 µg/mL | 1 µg/mL | 0.125 µg/mL | 0.5 µg/mL | 0.5 µg/mL | 8 µg/mL | 2 µg/mL | 0.5 µg/mL | –
6 | Cc1cccc(C[Se]CC(O)(Cn2cncn2)c2ccc(F)cc2F)c1 (stereo not given) | 0.125 µg/mL | 1 µg/mL | 0.06 µg/mL | 2 µg/mL | 1 µg/mL | 4 µg/mL | 4 µg/mL | 0.25 µg/mL | –
7 | COc1ccc([Se]CC(O)(Cn2cncn2)c2ccc(F)cc2F)cc1 (stereo not given) | 0.25 µg/mL | 0.125 µg/mL | 0.02 µg/mL | 0.5 µg/mL | 0.03 µg/mL | 16 µg/mL | 0.5 µg/mL | 0.125 µg/mL | IC50 (MDA-MB-231): 18.8 µM; Activity [3]: 65.7%; IC50 (PC-3): 26.7 µM; Activity [4]: 19.1%; Activity [5]: 64.7%; Activity [6]: 18.4%; Activity [7]: 11.8%; Activity [8]: 64.3%; Activity [9]: 10.1%; Activity [10]: 1.4%; Activity [11]: 10.8%; Activity [12]: 0.38%; IC50 (HL-60): 12.1 µM; Activity [13]: 64.5%; Activity [14]: 4.3%; Activity [15]: 11.2%; Activity [16]: 19.3%; Activity [17]: 18.2%; Activity [18]: 3.6%
8 | Cc1ccccc1[Se]CC(O)(Cn1cncn1)c1ccc(F)cc1F (stereo not given) | 1 µg/mL | 1 µg/mL | 0.03 µg/mL | 0.5 µg/mL | 0.25 µg/mL | 16 µg/mL | 0.5 µg/mL | 0.125 µg/mL | –
9 | CCc1ccccc1[Se]CC(O)(Cn1cncn1)c1ccc(F)cc1F (stereo not given) | 0.25 µg/mL | 2 µg/mL | 0.5 µg/mL | 1 µg/mL | 0.5 µg/mL | 4 µg/mL | 1 µg/mL | 0.25 µg/mL | –
10 | CCc1ccc([Se]CC(O)(Cn2cncn2)c2ccc(F)cc2F)cc1 (stereo not given) | 1 µg/mL | 2 µg/mL | 0.5 µg/mL | 2 µg/mL | 1 µg/mL | 4 µg/mL | 4 µg/mL | 0.5 µg/mL | –
11 | Cc1ccc(C)c([Se]CC(O)(Cn2cncn2)c2ccc(F)cc2F)c1 (stereo not given) | 1 µg/mL | 0.5 µg/mL | 1 µg/mL | 1 µg/mL | 0.25 µg/mL | 2 µg/mL | 2 µg/mL | 0.5 µg/mL | –
12 | Cc1ccccc1[Se]C(Cn1ccnc1)c1ccc(Cl)cc1 (stereo not given) | – | – | – | – | – | – | – | – | MFC (Candida albicans [19]): 0.25 µg/mL (≈ 0.665 µM); MIC (Candida albicans [19]): 0.02 µg/mL (≈ 0.0532 µM); MIC (Candida albicans [20]): 0.03 µg/mL (≈ 0.0798 µM)
13 | OC(C[Se]Cc1ccc(C(F)(F)F)cc1)(Cn1cncn1)c1ccc(F)cc1F (stereo not given) | 0.03 µg/mL | 0.5 µg/mL | 0.03 µg/mL | 2 µg/mL | 0.5 µg/mL | 4 µg/mL | 4 µg/mL | 0.25 µg/mL | –
14 | OC(C[Se]Cc1cccc(F)c1)(Cn1cncn1)c1ccc(F)cc1F (stereo not given) | 0.06 µg/mL | 0.25 µg/mL | 0.03 µg/mL | 1 µg/mL | 2 µg/mL | 2 µg/mL | 2 µg/mL | 0.25 µg/mL | –
15 | Cc1ccc(C[Se]CC(O)(Cn2cncn2)c2ccc(F)cc2F)cc1 (stereo not given) | 0.125 µg/mL | 1 µg/mL | 0.06 µg/mL | 2 µg/mL | 1 µg/mL | 2 µg/mL | 2 µg/mL | 0.25 µg/mL | –
16 | COc1cccc(C[Se]CC(O)(Cn2cncn2)c2ccc(F)cc2F)c1 (stereo not given) | 0.25 µg/mL | 4 µg/mL | 0.125 µg/mL | 8 µg/mL | 2 µg/mL | 4 µg/mL | 4 µg/mL | 0.25 µg/mL | –
17 | OC(C[Se]Cc1ccc(F)cc1)(Cn1cncn1)c1ccc(F)cc1F (stereo not given) | 0.06 µg/mL | 0.5 µg/mL | 0.03 µg/mL | 1 µg/mL | 2 µg/mL | 2 µg/mL | 1 µg/mL | 0.25 µg/mL | –
18 | COc1cccc([Se]CC(O)(Cn2cncn2)c2ccc(F)cc2F)c1 (stereo not given) | 0.5 µg/mL | 2 µg/mL | 0.02 µg/mL | 2 µg/mL | 1 µg/mL | 8 µg/mL | 4 µg/mL | 0.125 µg/mL | –
19 | COc1cccc2c1C(=O)c1c(O)c3c(c(O)c1C2=O)C[C@@](O)(C(=O)CO)C[C@@H]3O[C@H]1C[C@H](N)[C@H](O)[C@H](C)O1 [DOXORUBICIN] | – | – | – | – | – | – | – | – | IC50 (HL-60): < 0.125 µM
20 | OC(Cn1cncn1)(Cn1cncn1)c1ccc(F)cc1F [FLUCONAZOLE] | – | 4 µg/mL | – | – | – | – | – | – | IC50 (MDA-MB-231): 19.2 µM; Activity [3]: 69.9%; IC50 (PC-3): 16.5 µM; Activity [4]: 15.4%; Activity [5]: 68.7%; Activity [6]: 14.3%; Activity [7]: 14.1%; Activity [8]: 67.9%; Activity [9]: 13.9%; Activity [10]: 1.5%; Activity [11]: 13.1%; Activity [12]: 1.1%; IC50 (HL-60): 11.6 µM; Activity [13]: 69.6%; Activity [14]: 3.9%; Activity [15]: 13.5%; Activity [16]: 14.9%; Activity [17]: 15.7%; Activity [18]: 2.5%
21 | Clc1ccc(COC(Cn2ccnc2)c2ccc(Cl)cc2Cl)c(Cl)c1 (stereo not given) [MICONAZOLE] | – | 1 µg/mL | – | – | – | – | – | – | –
